The numbers were not newly measured in patent US20090304721A1, “TOXIN […] RECEPTOR ANTIBODIES” (priority 2005, published 2009), which cites them from elsewhere.

The conditions of the series: compared with vincristine and vinblastine; cited from earlier work.

As to `COc1cc2cc(c1Cl)N(C)C(=O)C[C@H](OC(=O)[C@H](C)N(C)C(C)=O)[C@]1(C)O[C@H]1[C@H](C)[C@@H]1C[C@@](O)(NC(=O)O1)[C@H](OC)/C=C/C=C(\C)C2` [Maytansine], the “cytotoxicity in vitro relative to vinca alkaloids” value is given as 200 to 1,000 fold.
